The record followed here is patent US20230242511A1, “FUSED PYRAZOLE AND IMIDAZOLE BASED COMPOUNDS AND USE THEREOF AS GLI1 INHIBITORS” (GLIXOGEN THERAPEUTICS LTD., priority 2020, published 2023).

In data set [1] the test system is EAE mouse model. Kind of data set: Efficacy EAE model, MOG35-55/CFA in C57B16 mice. The data set is classed as in vivo. The following applies: daily 10 mg/Kg, until Day 28, vs vehicle. The procedure: (§1) N=12 for all groups except for dexamethasone which had n=5 (FIG. 1B).
Thirteen-weeks old female C57B16 mice were immunized on Day 1 with an emulsion of MOG35-55/CFA and injected with pertussis toxin to induce disease. At the start of clinical signs (Days 9-10), the animals were daily administered with Glx-077, Glx-088P3, clemastine fumarate (at 10 mg/Kg) or vehicle (15% HP-β-CD in water) until completion of experiment (Day 28). Mice administered with dexamethasone were used as a positive control group. Clinical score of the mice was measured daily. A graph, summarizing the results of this experiment is represented in FIG. 1B.

The test system of data set [2] is EAE mouse model. Kind of data set: Efficacy EAE model, PLP139-151/CFA in SJL/L mice. Type of data set: in vivo. The following applies: daily 10 mg/Kg or 50 mg/Kg, until Day 57, vs vehicle. As to the method: as §1
Eight-weeks old female SJL/L mice were immunized on Day 1 with an emulsion of PLP139-151/CFA and injected with pertussis toxin to induce disease. At the start of clinical signs (Days 9-10), the animals were administered with compound 6 (Glx-077) at a daily dose of 10 mg/Kg or 50 mg/Kg, or with a vehicle (15% HP-β-CD in water) until completion of trial (Day 57). A graph, summarizing the results of this experiment is represented in FIG. 1A.

For data set [3], the system named is Gli1. Kind of data set: Gli1-Luciferase Reporter Assay (Shh Light 2 cells). Type of data set: cell-based, mouse. The procedure: Cell line: Shh Light 2 cell line which is based on NIH3T3 mouse fibroblast cell line genetically modified to stably express the Firefly Luciferase reporter gene under the transcription control of Gli 1 binding sequence and the Renila Luciferase gene under a control pRL-SV40 promoter was licensed from Johns Hopkins University (JHU).
Cell culture: Cells are cultured in Complete Medium [formulated as DMEM, 10% FBS, 1% sodium pyruvate, 1% L-glutamine, 0.4 mg/ml G418, 0.15 mg/ml Zeocin] until 80% confluence is achieved. Once sufficient confluency is achieved, cells are detached from the 10 cm culture dish using trypsin-EDTA, washed in Growth Medium [formulated as DMEM, 10% FBS, 1% sodium pyruvate, 1% L-glutamine, 1% PenStrep] and resuspended in fresh Growth Medium at a concentration of 4.3*10^5 cells/ml. To a white 96-well plate […] of cells suspension is transferred and incubated in a humified incubator at 37° C. with 5% CO2 overnight until the cells reach confluency the following day.
On the following day, a 13 point 1:1 dilution of a stock 20 mM Gli 1 inhibitor compound in DMSO is performed and […] of each diluted Gli1 inhibitor compound is diluted in […] Assay Medium [formulated as DMEM, 2% FBS, 1% sodium pyruvate, 1% L-glutamine, 1% PenStrep]. The Growth Medium is removed from the cell-plated 96-well plate and […] of the diluted Gli1 inhibitor is transferred to each well and plates are incubated at 37° C. and 5% CO2 for 30 minutes.
Then, the plates are removed from incubator and Purmorphamine (a Smoothened agonist to induce Hedgehog signaling and Gli1 activation in cells) at a final concentration of […] is added to each well and the plates are reinserted to the incubator for 24 hours incubation. The following day, Firefly and Renila Luciferase levels are measured using the Dual-Glo Luciferase system and the ratio between the Firefly and Renila is calculated for normalization of signal. The ratio of the signal in the treated cells is plotted vs. compound concentration and the IC50 value of each compound is calculated by generating a non-linear regression curve using the 4PL function in GraphPad Prism 8 software.
The primary screening assay is based on a NIH3T3 mouse fibroblast cell line genetically modified to stably express the Firefly Luciferase reporter gene under the transcription control of Gli1 binding sequence and the Renila Luciferase gene under a control pRL-SV40 promoter. This assay allows the determination of a compound's IC50 value in inhibiting Gli1 activity.

A short description of data set [4]: Pharmacokinetic Study. The data set is classed as in vivo. Conditions: for Cmax: in ng/mL (unit assumed). The procedure:
Compounds were formulated in 15% HP-b-CD in water (IV formulation was at pH=5.0 and PO was at pH=3.0). Blood was obtained from facial vein pre-dosing and at 0.083, 0.25, 0.5, 1, 2, 4, 8, 24 hours post dosing for a total of 9 time-points, semi-serial bleeding. For PO dosing, another group of animals (n=3) were terminated at 2 hours post dosing and brains were extracted to analyze brain exposure and calculate brain/plasma ratio. Lower limit of quantification (LLOQ) for brain and plasma samples was 1 ng/ml.

Setting [5] is: Mus musculus, Shh Light2, in-vitro, read-out: concentration inhibiting 50% of Gli1 activity.
Setting [6] is: Mus musculus, Shh Light2, Shh Light 2 cell line, Purmorphamine-induced, 24 hours, read-out: Luciferase cell based IC50.
Where [7] appears, read: Shh Light 2 cell line, Purmorphamine-induced, 24 hours, read-out: Luciferase cell based IC50.

Like-named read-outs stand apart in the source and are kept apart here.

Turning to `Cn1c(-c2ccccc2Cl)nc2c1CN(Cc1nc3cccnc3o1)CC2` [Compound 6], the “clinical outcome / clinical score (FIG. 1B)” value in data set [1] is on record as “improvements in clinical outcome”. In addition, the “clinical outcome (FIG. 1A)” value in data set [2] is on record as “improvements in clinical outcome”.
Regarding `Cn1c(-c2ccccc2Cl)nc2c1CN(Cc1ncnc3ccccc13)CC2` [Compound 13], the IC50 in data set [3] (setting [5]) was under 17 nM.
`COc1cccc2c1CN(C1CCc3nn(-c4ccccc4Cl)c(C)c3[C@@H]1O)C2` (some centres unmarked) [Glx-344]: in data set [3] (setting [6]), the IC50 stood at 385 nM.
Still for that read-out and setting: the same measure for `Cc1c2c(nn1-c1ccccc1Cl)CCC(N1Cc3cccc(C#N)c3C1)C2` (centres unmarked) [Glx-322]: 12 nM.
On to `COc1cccc2c1CN(C1CCc3nn(-c4ccccc4Cl)c(C)c3C1)C2` (centres unmarked) [Glx-088P3], for which, in data set [3] (setting [7]), the IC50 worked out at 0.18 nM. In data set [4] (IV, 2 mg/Kg), this compound gave an AUCINF-plasma of 517 ng·h/mL and a T½ of 1.53 h. In data set [4] (PO, 10 mg/Kg), the “% F” value came to 38%, the AUCINF-plasma is 517 ng·h/mL, the T½ is 1.5 h and the “Brain levels 2 h post PO administration” value is 123 ng/g. Also, in data set [4] (PO, 10 mg/Kg), the “Brain/plasma ratio (2 h)” value is given as 208% and the Cmax turned out to be 268. Besides, in data set [4] (PO, 30 mg/Kg), the “% F” value came out at 65.6%, the AUCINF-plasma came to 2674 ng·h/mL, the T½ is 1.69 h and the “Brain levels 2 h post PO administration” value worked out at 1104 ng/g. Besides, in data set [4] (PO, 30 mg/Kg), the “Brain/plasma ratio (2 h)” value was 236% and the Cmax is reported as 1199. Also, in data set [1], the “clinical outcome / clinical score (FIG. 1B)” value is “improvements in clinical outcome”.
Consider `COc1cccc2c1CN(C1CCc3nn(-c4ccccc4Cl)c(C)c3C1)C2` (centres unmarked) [Glx-088RS], for which the IC50 in data set [3] (setting [7]) came out at 7.1 nM. Further, in data set [4] (PO, 10 mg/Kg), the AUCINF-plasma was determined as 748 ng·h/mL, the T½ turned out to be 1.99 h, the “Brain levels 2 h post PO administration” value came to 211 ng/g and the “Brain/plasma ratio (2 h)” value is given as 129%. Moreover, in data set [4] (PO, 10 mg/Kg), the Cmax came out at 698.
Turning to `Cc1c2c(nn1-c1ccccc1Cl)CCC(N1Cc3c(F)ccc(C#N)c3C1)C2` (centres unmarked) [Glx-308], the IC50 in data set [3] (setting [6]) was found to be 55 nM.
Same read-out and setting: then `COc1cccc2c1CC(N1CCc3nn(-c4ccccc4Cl)c(C)c3C1)C2` (centres unmarked) [Glx-369], with 73 nM.
Turning to `Cn1c(-c2ccccc2Cl)nc2c1CN(Cc1cnc3ccccc3n1)CC2` [Compound 11], the IC50 in data set [3] (setting [5]) was under 17 nM.
On to `COc1cccc2c1CN(C1CCc3nn(-c4ccccc4Cl)c(C)c3C1=O)C2` (centres unmarked) [Glx-402], for which the IC50 in data set [3] (setting [6]) stood at 430 nM.
Consider `Cc1nc(CN2CCc3nc(-c4ccccc4Cl)n(C)c3C2)nc2ccccc12` [Compound 12], for which, in data set [3] (Mus musculus, Shh Light2, benzyl series compounds, read-out: in-vitro efficacy IC50), the IC50 was 5.6 nM.
As to `COc1ccc(C#N)c2c1CN(C1CCc3nn(-c4ccccc4Cl)c(C)c3C1)C2` (centres unmarked) [Glx-341], the IC50 in data set [3] (setting [6]) amounted to 16.7 nM.
With `Cn1c(-c2ccccc2Cl)nc2c1CN(Cc1nc3ccccc3s1)CC2` [Compound 14], the IC50 in data set [3] (setting [5]) was under 17 nM.
With `COc1cccc2c1CN([C@H]1CCc3nn(-c4ccccc4Cl)c(C)c3[C@@H]1O)C2` [Glx-344A], the IC50 in data set [3] (setting [6]) was 172 nM.
